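Compound exposure: 48 hours, 5 concentrations, 96-well plates. At the GI50, growth is halved. Definition used: TGI = concentration required for complete inhibition of growth.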
Experiments:
Experiment in all cases: growth of human tumour cells (NCI), 48 h
[1] = test system: A498 renal
[2] = test system: NCI-H460 lung
[3] = test system: HOP-92 NSCLC
[4] = test system: SNB-75 CNS
[5] = test system: UO-31 renal
[6] = test system: UACC-257 melanoma
[7] = test system: SR leukemia
[8] = test system: MDA-MB-231 breast
[9] = test system: OVCAR-3 ovarian
[10] = test system: SNB-19 CNS
[11] = test system: SF-295 CNS
[12] = test system: SW-620 colon
[13] = test system: SK-MEL-2 melanoma
[14] = test system: NCI-H226 lung
[15] = test system: RXF 393 renal
[16] = test system: KM12 colon
[17] = test system: SK-MEL-28 melanoma
[18] = test system: HT29 colon
[19] = test system: HL-60(TB) leukemia
[20] = test system: DU-145 prostate
[21] = test system: SK-MEL-5 melanoma
[22] = test system: M14 melanoma
[23] = test system: OVCAR-5 ovarian
[24] = test system: CAKI-1 renal
[25] = test system: OVCAR-8 ovarian
[26] = test system: SF-268 CNS
[27] = test system: ACHN renal
[28] = test system: BT-549 breast
[29] = test system: SN12C renal
[30] = test system: MDA-MB-435
[31] = test system: OVCAR-4 ovarian
[32] = test system: NCI/ADR-RES ovarian
[33] = test system: PC-3 prostate
[34] = test system: SK-OV-3 ovarian
[35] = test system: NCI-H23 lung
[36] = test system: UACC-62 melanoma
[37] = test system: MOLT-4 leukemia
[38] = test system: TK-10 renal
[39] = test system: K-562 leukemia
[40] = test system: IGROV1 ovarian
[41] = test system: HS 578T breast
[42] = test system: U251 CNS
[43] = test system: HCC-2998 colon
[44] = test system: HCT-116 colon
[45] = test system: 786-0 renal
[46] = test system: CCRF-CEM leukemia
[47] = test system: NCI-H522 lung
[48] = test system: A549 NSCLC
[49] = test system: HCT-15 colon
[50] = test system: T-47D breast
[51] = test system: MALME-3M melanoma
[52] = test system: SF-539 CNS
[53] = test system: EKVX NSCLC

For `CNCCCn1c2c(c3ccc(Cl)cc3c1=O)C(=O)c1cc(OC)cnc1-2`, the GI50 [1] was 531 nM, the TGI [1] was 9070 nM and the GI50 [2] was 46.2 nM. For the same compound, the TGI [2] was 1250 nM, the GI50 [3] was 1190 nM and the TGI [3] was 2750 nM. It also gave a GI50 [4] of 263 nM, a TGI [4] of 1780 nM and a GI50 [5] of 1080 nM. For the same compound, the TGI [5] was 2640 nM, the GI50 [6] was 2240 nM and the TGI [6] was 11100 nM. The GI50 [7] was 143 nM, the TGI [7] was 1110 nM and the GI50 [8] was 1620 nM. For the same compound, the TGI [8] was 3540 nM, the GI50 [9] was 1410 nM and the TGI [9] was 2780 nM. For the same compound, the GI50 [10] was 614 nM, the TGI [10] was 2260 nM and the GI50 [11] was 132 nM. For the same compound, the TGI [11] was 1380 nM, the GI50 [12] was 76.2 nM and the TGI [12] was 1980 nM. The GI50 [13] was 13200 nM, the TGI [13] was 33400 nM and the GI50 [14] was 1350 nM. It also gave a TGI [14] of 3860 nM, a GI50 [15] of 1300 nM and a TGI [15] of 2840 nM. It also gave a GI50 [16] of 1100 nM, a TGI [16] of 2430 nM and a GI50 [17] of 1620 nM. It also gave a TGI [17] of 3150 nM, a GI50 [18] of 1080 nM and a TGI [18] of 2450 nM. For the same compound, the GI50 [19] was 601 nM, the TGI [19] was 2400 nM and the GI50 [20] was 331 nM. The TGI [20] was 1740 nM, the GI50 [21] was 1120 nM and the TGI [21] was 2490 nM. The GI50 [22] was 569 nM, the TGI [22] was 1890 nM and the GI50 [23] was 1690 nM. The TGI [23] was 3180 nM, the GI50 [24] was 63.1 nM and the TGI [24] was 1780 nM. For the same compound, the GI50 [25] was 1180 nM, the TGI [25] was 3500 nM and the GI50 [26] was 397 nM. The TGI [26] was 2190 nM, the GI50 [27] was 224 nM and the TGI [27] was 1580 nM. It also gave a GI50 [28] of 645 nM, a TGI [28] of 2070 nM and a GI50 [29] of 1180 nM. It also gave a TGI [29] of 3040 nM, a GI50 [30] of 1070 nM and a TGI [30] of 2320 nM. For the same compound, the GI50 [31] was 1270 nM, the TGI [31] was 2930 nM and the GI50 [32] was 536 nM. It also gave a TGI [32] of 2910 nM, a GI50 [33] of 1020 nM and a TGI [33] of 2330 nM. For the same compound, the GI50 [34] was 658 nM and the TGI [34] was 2080 nM.

Work on `CCOC(=O)c1cc(-c2ccc([N+](=O)[O-])cc2)c([N+](=O)[O-])[nH]1` yielded a TGI [2] of over 10000 nM, a TGI [3] of 5490 nM and a TGI [4] of over 10000 nM. The TGI [5] was 9690 nM, the TGI [35] was 8010 nM and the TGI [36] was over 10000 nM. The TGI [37] was over 10000 nM, the TGI [6] was 5680 nM and the TGI [7] was over 10000 nM. For the same compound, the TGI [38] was over 10000 nM, the TGI [39] was over 10000 nM and the TGI [40] was over 10000 nM. The TGI [8] was over 10000 nM, the TGI [41] was over 10000 nM and the TGI [42] was over 10000 nM. It also gave a TGI [9] of over 10000 nM, a TGI [43] of over 10000 nM and a TGI [10] of over 10000 nM. The TGI [11] was 7470 nM, the TGI [13] was over 10000 nM and the TGI [14] was 5770 nM. It also gave a TGI [15] of 9410 nM, a TGI [44] of over 10000 nM and a TGI [16] of over 10000 nM. It also gave a TGI [45] of over 10000 nM, a TGI [18] of over 10000 nM and a TGI [20] of over 10000 nM. The TGI [46] was over 10000 nM, the TGI [47] was over 10000 nM and the TGI [22] was over 10000 nM. The TGI [48] was over 10000 nM, the TGI [23] was over 10000 nM and the TGI [25] was over 10000 nM. It also gave a TGI [26] of over 10000 nM, a TGI [49] of over 10000 nM and a TGI [27] of over 10000 nM. For the same compound, the TGI [50] was 9950 nM, the TGI [28] was over 10000 nM and the TGI [29] was over 10000 nM. It also gave a TGI [30] of 9300 nM, a TGI [31] of over 10000 nM and a TGI [32] of over 10000 nM. It also gave a TGI [51] of over 10000 nM, a TGI [52] of over 10000 nM and a TGI [34] of over 10000 nM. For the same compound, the TGI [53] was over 10000 nM.

— PubChem BioAssay (NCI)
